Results from patent US10028911B2, “Sustained release formulation of methotrexate as a disease-modifying antirheumatic drug (DMARD) and an anti-cancer agent” (PACIRA PHARMACEUTICALS, INC., priority 2010, dated 2018).
Like-named read-outs stand apart in the source and are kept apart here.

Experiments:
[1] = Pharmacokinetic (PK) study in rats, subcutaneous injection, serum MTX by HPLC; type: in vivo, Male Sprague Dawley rats; details: rat
Protocol: A pharmacokinetic (PK) study was performed in rats, comparing MTX solution control against four different formulations of MVL-encapsulated MTX at a dose level of 10 mg/kg. Male Sprague Dawley rats weighing 280-320 g received subcutaneous injections of either MTX solution or one of the MVL-encapsulated MTX formulations. The injections were made on the left lateral hind limb of each rat using 1 mL syringes fitted with 25G needles. Each treatment group contained 3 rats. Appropriate dilutions with sterile saline solution were performed to provide a dose of 10 mg/kg of MTX per rat, assuming an average rat weight of 300 g (final injection volume of 200 uL). Rats were ordered by pre-dose weight and then randomized into the different treatment groups.
Serum MTX analysis was performed to measure MTX in serum using a liquid-liquid extraction (LLE) HPLC method performed by an Agilent 1200 Series system produced by Agilent Technologies headquartered in Santa Clara, Calif. A 100 μL volume of rat serum was mixed with 300 μL of acetonitrile solution containing 1.1% formic acid (w/v) in a 1.5-mL Eppendorf tube. The deproteinization was carried out by vortexing for 1 minute, followed by centrifugation at 13,000 g for 5 minutes. The entire supernatant was transferred into a 1.5-mL microcentrifuge tube with screw cap. Acetonitrile was cleaned out by mixing 500 μL of chloroform with the supernatant. The tube was vortexed for 1 minute and then centrifuged at 13,000 g for 3 minutes. A 40 μL volume of the top aqueous portion was collected into a 100-μL vial insert for HPLC sample injection.
The HPLC system was equipped with a detector set at 302 nm and a 2.1-mm×250-mm Supelcosil LC-18-S with 5-μm particle size column. The mobile phase consisted of 102 mM sodium phosphate (dibasic), 32.5 mM citric acid, and 10% (v/v) acetonitrile (pH˜6.0). The flow rate was 0.6 mL/min, column temperature 35° C., and injection volume 20 μL. An MTX standard curve was prepared by spiking 6 different concentrations of MTX (22.7-727.1 ng/mL) into MTX-free rat serum. The MTX in each spiked standard was extracted using the same sample preparation method above.
Additional PK studies on Formulations 1 and 2 were performed as above, including some at reduced doses of MTX. The PK parameters from these studies are summarized below. […] The Cavg is the average plasma concentration over the 7 day time period.

[2] = cited from earlier work

time to drop below LOQ in plasma ([1]; 10 mg/kg, FIG. 1): ≤ 24 h | AUC/Dose ([1]; MTX dose 10 mg/kg): 1.55 µmol·h/L/mg/kg | Cmax ([1]; MTX dose 10 mg/kg): 14.4 µM | tmax ([1]; MTX dose 10 mg/kg): 0.5 h
SMILES: CN(Cc1cnc2nc(N)nc(N)c2n1)c1ccc(C(=O)N[C@@H](CCC(=O)O)C(=O)O)cc1 [MTX Solution, methotrexate]
standard AUC ([2]; oral immediate release dosage forms (Hoekstra et al. 2004)): 2466 mcg/L-hr | t1/2 ([2]; orally administered): 8 to 10 h | tmax ([2]; orally administered): 1 to 3 h
